Measured values reported in the NIST ThermoML archive (doi:10.1021/je3010535).
Where “and” joins values, the source holds several entries; their conditions need not be identical. Identical values can stand only once. Numbers after ± are expanded uncertainties.

Test: Henry's Law constant (molality scale); of the first substance listed, at infinite dilution; xn = mol fraction of the nth substance listed
Conditions: Liquid, Chromatography, x1 = 0

CC#N [acetonitrile] + O
Henry's Law constant (274.15 K): 0.21 ± 0.084 kPa·kg/mol
Henry's Law constant (294.65 K): 1.41 kPa·kg/mol and 1.55 kPa·kg/mol
Henry's Law constant (296.15 K): 1.7 ± 0.68 kPa·kg/mol
Henry's Law constant (310.15 K): 5.36 ± 2.1 kPa·kg/mol
Henry's Law constant (320.15 K): 12.6 ± 5.1 kPa·kg/mol
Henry's Law constant (331.15 K): 6.17 kPa·kg/mol

CC(=O)c1ccccc1 [acetophenone] + O
Henry's Law constant (274.15 K): 0.128 ± 0.039 kPa·kg/mol
Henry's Law constant (294.65 K): 0.881 kPa·kg/mol and 0.738 kPa·kg/mol
Henry's Law constant (296.15 K): 1.6 ± 0.48 kPa·kg/mol
Henry's Law constant (310.15 K): 2.48 ± 0.75 kPa·kg/mol
Henry's Law constant (320.15 K): 4.6 ± 1.4 kPa·kg/mol
Henry's Law constant (331.15 K): 8.87 ± 2.7 kPa·kg/mol

C=CC#N [acrylonitrile] + O
Henry's Law constant (274.15 K): 1.24 ± 0.37 kPa·kg/mol
Henry's Law constant (294.65 K): 5.23 kPa·kg/mol and 8.07 kPa·kg/mol
Henry's Law constant (296.15 K): 9.19 ± 2.8 kPa·kg/mol
Henry's Law constant (310.15 K): 25.3 ± 7.6 kPa·kg/mol
Henry's Law constant (320.15 K): 40 ± 12 kPa·kg/mol
Henry's Law constant (331.15 K): 73.9 ± 22 kPa·kg/mol
Henry's Law constant (333.15 K): 97.8 ± 29 kPa·kg/mol

Brc1ccccc1 [bromobenzene] + O
Henry's Law constant (274.15 K): 56.1 ± 17 kPa·kg/mol
Henry's Law constant (294.65 K): 138 kPa·kg/mol and 147 kPa·kg/mol
Henry's Law constant (296.15 K): 161 ± 48 kPa·kg/mol
Henry's Law constant (310.15 K): 273 ± 82 kPa·kg/mol
Henry's Law constant (320.15 K): 470 ± 140 kPa·kg/mol
Henry's Law constant (331.15 K): 708 ± 210 kPa·kg/mol

ClCBr [bromochloromethane] + O
Henry's Law constant (274.15 K): 50.8 ± 15 kPa·kg/mol
Henry's Law constant (294.65 K): 121 kPa·kg/mol and 123 kPa·kg/mol
Henry's Law constant (296.15 K): 126 ± 38 kPa·kg/mol
Henry's Law constant (310.15 K): 259 ± 78 kPa·kg/mol
Henry's Law constant (320.15 K): 479 ± 140 kPa·kg/mol
Henry's Law constant (331.15 K): 795 ± 240 kPa·kg/mol

ClC(Cl)Br [bromodichloromethane] + O
Henry's Law constant (274.15 K): 60.5 ± 18 kPa·kg/mol
Henry's Law constant (294.65 K): 165 kPa·kg/mol and 162 kPa·kg/mol
Henry's Law constant (296.15 K): 172 ± 51 kPa·kg/mol
Henry's Law constant (310.15 K): 347 ± 100 kPa·kg/mol
Henry's Law constant (331.15 K): 973 ± 290 kPa·kg/mol

CBr [bromomethane] + O
Henry's Law constant (274.15 K): 399 ± 120 kPa·kg/mol
Henry's Law constant (313.15 K): 1120 ± 340 kPa·kg/mol
Henry's Law constant (326.15 K): 1920 ± 580 kPa·kg/mol

CCC(C)=O [butanone] + O
Henry's Law constant (274.15 K): 0.416 ± 0.12 kPa·kg/mol
Henry's Law constant (294.65 K): 1.72 kPa·kg/mol and 2.37 kPa·kg/mol
Henry's Law constant (296.15 K): 2.62 ± 0.79 kPa·kg/mol
Henry's Law constant (310.15 K): 8.13 ± 2.4 kPa·kg/mol
Henry's Law constant (320.15 K): 15.3 ± 4.6 kPa·kg/mol
Henry's Law constant (331.15 K): 43.9 ± 13 kPa·kg/mol
Henry's Law constant (333.15 K): 62 ± 19 kPa·kg/mol

CCCCc1ccccc1 [butylbenzene] + O
Henry's Law constant (274.15 K): 174 kPa·kg/mol
Henry's Law constant (296.15 K): 458 kPa·kg/mol
Henry's Law constant (310.15 K): 481 kPa·kg/mol
Henry's Law constant (313.15 K): 2290 kPa·kg/mol
Henry's Law constant (326.15 K): 3470 kPa·kg/mol
Henry's Law constant (331.15 K): 1280 kPa·kg/mol

S=C=S [carbon disulfide] + O
Henry's Law constant (274.15 K): 682 ± 200 kPa·kg/mol
Henry's Law constant (313.15 K): 2930 ± 880 kPa·kg/mol
Henry's Law constant (326.15 K): 5690 ± 1700 kPa·kg/mol

CCCl [chloroethane] + O
Henry's Law constant (274.15 K): 522 ± 160 kPa·kg/mol
Henry's Law constant (313.15 K): 1950 ± 580 kPa·kg/mol
Henry's Law constant (326.15 K): 2940 ± 880 kPa·kg/mol

C=CCl [chloroethene] + O
Henry's Law constant (274.15 K): 1140 ± 340 kPa·kg/mol
Henry's Law constant (313.15 K): 4200 ± 1300 kPa·kg/mol
Henry's Law constant (326.15 K): 6500 ± 1900 kPa·kg/mol

ClC/C=C\CCl [cis-1,4-dichloro-2-butene] + O
Henry's Law constant (274.15 K): 3.03 kPa·kg/mol
Henry's Law constant (296.15 K): 31.9 kPa·kg/mol
Henry's Law constant (310.15 K): 102 kPa·kg/mol
Henry's Law constant (320.15 K): 182 kPa·kg/mol
Henry's Law constant (326.15 K): 1380 kPa·kg/mol
Henry's Law constant (331.15 K): 492 kPa·kg/mol

C1CCCCC1 [cyclohexane] + O
Henry's Law constant (274.15 K): 1010 ± 300 kPa·kg/mol
Henry's Law constant (294.65 K): 2250 kPa·kg/mol
Henry's Law constant (296.15 K): 2250 ± 670 kPa·kg/mol
Henry's Law constant (313.15 K): 9460 ± 2800 kPa·kg/mol
Henry's Law constant (326.15 K): 15700 ± 4700 kPa·kg/mol

BrCBr [dibromomethane] + O
Henry's Law constant (274.15 K): 24 ± 7.2 kPa·kg/mol
Henry's Law constant (294.65 K): 67.5 kPa·kg/mol and 64.7 kPa·kg/mol
Henry's Law constant (296.15 K): 72.9 ± 22 kPa·kg/mol
Henry's Law constant (310.15 K): 154 ± 46 kPa·kg/mol
Henry's Law constant (320.15 K): 278 ± 83 kPa·kg/mol
Henry's Law constant (331.15 K): 444 ± 130 kPa·kg/mol
